assay: HILIC, Waters Atlantis Premier BEH Z-HILIC, 100 × 2.1 mm, 1.7 µm, 40 °C, 0.15 mL/min, estimated dead time 1.5 min; A: water + 20 mM ammonium carbonate + 5 µM medronic acid; B: 10% water + 90% acetonitrile + 2 mM ammonium carbonate + 0.5 µM medronic acid; gradient (min/%B) 0/100 18/60 18.1/20 21.5/20 22/100 23.5/100 25.5/100; settings: stereoisomer not certain

Question: With `CC(=O)SCCNC(=O)CCNC(=O)C(O)C(C)(C)COP(=O)(O)OP(=O)(O)OCC1OC(n2cnc3c(N)ncnc32)C(O)C1OP(=O)(O)O` (configuration not stated) [Acetyl-CoA] as the compound, how does the LC retention time read?
Answer: 9.69 min

Question: With `NC(=O)C1=CN(C2OC(COP(=O)(O)OP(=O)(O)OCC3OC(n4cnc5c(N)ncnc54)C(O)C3O)C(O)C2O)C=CC1` (configuration not stated) [NADH] as the compound, how does the LC retention time read?
Answer: 8.31 min

Question: With `CC(C)CC(N)C(=O)O` (configuration not stated) [Leucine] as the compound, how does the LC retention time read?
Answer: 6.46 min

Question: Which LC retention time does the source give for `O=C(O)CCC(=O)O` [Succinic Acid] here?
Answer: 8.9 min

Question: Which LC retention time does the source give for `NC(=O)c1ccc[n+](C2OC(COP(=O)(O)OP(=O)(O)OCC3OC(n4cnc5c(N)ncnc54)C(OP(=O)(O)O)C3O)C(O)C2O)c1` (configuration not stated) [NADP] here?
Answer: 13.4 min

Question: With `O=P(O)(O)OCC1OC(O)C(O)C(O)C1O` (configuration not stated) [Glucose-6-phosphate] as the compound, how does the LC retention time read?
Answer: 12.3 min

Question: Which LC retention time does the source give for `Nc1ncnc2c1ncn2C1OC(COP(=O)(O)O)C(O)C1O` (configuration not stated) [AMP] here?
Answer: 9.42 min

Question: With `CC(=O)NC1C(OP(=O)(O)OP(=O)(O)OCC2OC(n3ccc(=O)[nH]c3=O)C(O)C2O)OC(CO)C(O)C1O` (configuration not stated) [UDP-GlcNAc] as the compound, how does the LC retention time read?
Answer: 9.95 min

Question: With `C[N+](C)(C)CC(O)CC(=O)[O-]` (configuration not stated) [Carnitine] as the compound, how does the LC retention time read?
Answer: 10.1 min

Question: For `OCC1OC(O)C(O)C(O)C1O` (configuration not stated) [Hexose], which LC retention time is on record?
Answer: 6.98 min

Question: Which LC retention time does the source give for `O=C1CC(C(=O)O)NC(=O)N1` (configuration not stated) [dihydroorotic acid] here?
Answer: 4.08 min

Question: For `Nc1ncnc2c1ncn2C1OC(COP(=O)(O)OP(=O)(O)O)C(O)C1O` (configuration not stated) [ADP], which LC retention time is on record?
Answer: 11.6 min

Question: With `Cc1cc2nc3c(=O)[nH]c(=O)nc-3n(CC(O)C(O)C(O)COP(=O)(O)OP(=O)(O)OCC3OC(n4cnc5c(N)ncnc54)C(O)C3O)c2cc1C` (configuration not stated) [FAD] as the compound, how does the LC retention time read?
Answer: 7.67 min

Question: Which LC retention time does the source give for `Nc1ncnc2c1ncn2C1OC(CO)C(O)C1O` (configuration not stated) [Adenosine] here?
Answer: 3.63 min

Question: For `O=C(O)C(CO)OP(=O)(O)O` (configuration not stated) [Phosphoglyceric acid A], which LC retention time is on record?
Answer: 12.8 min

Question: Which LC retention time does the source give for `CC(O)C(=O)O` (configuration not stated) [Lactic Acid] here?
Answer: 3.35 min

Question: Which LC retention time does the source give for `C=C(OP(=O)(O)O)C(=O)O` [PEP] here?
Answer: 13.1 min

Question: With `Nc1ncnc2c1ncn2C1OC(COP(=O)(O)OP(=O)(O)OP(=O)(O)O)C(O)C1O` (configuration not stated) [ATP] as the compound, how does the LC retention time read?
Answer: 13.6 min

Question: For `NC(CCC(=O)O)C(=O)O` (configuration not stated) [Glutamic acid], which LC retention time is on record?
Answer: 9.81 min

Question: For `CCC(=O)OC(CC(=O)[O-])C[N+](C)(C)C` (configuration not stated) [carnitine-C3], which LC retention time is on record?
Answer: 6.46 min

Question: Which LC retention time does the source give for `CC(C)(COP(=O)(O)OP(=O)(O)OCC1OC(n2cnc3c(N)ncnc32)C(O)C1OP(=O)(O)O)C(O)C(=O)NCCC(=O)NCCS` (configuration not stated) [CoenzymeA] here?
Answer: 11.4 min

Question: Which LC retention time does the source give for `NC(=O)CCC(N)C(=O)O` (configuration not stated) [Glutamine] here?
Answer: 9.87 min

Question: Which LC retention time does the source give for `NC(=O)c1ccc[n+](C2OC(COP(=O)(O)OP(=O)(O)OCC3OC(n4cnc5c(N)ncnc54)C(O)C3O)C(O)C2O)c1` (configuration not stated) [NAD] here?
Answer: 9.95 min

Question: Which LC retention time does the source give for `O=C(CO)COP(=O)(O)O` [Triose phosphate] here?
Answer: 10.4 min

Question: Which LC retention time does the source give for `O=C(O)CC(O)(CC(=O)O)C(=O)O` [Citric acid] here?
Answer: 14.3 min

Question: Which LC retention time does the source give for `O=C(O)CCC(=O)C(=O)O` [2-Oxoglutaric acid] here?
Answer: 8.86 min

Question: For `O=C(O)CC(C(=O)O)C(O)C(=O)O` (configuration not stated) [Isocitric acid], which LC retention time is on record?
Answer: 14 min

Question: For `CCC(C)C(N)C(=O)O` (configuration not stated) [Isoleucine], which LC retention time is on record?
Answer: 6.4 min

Question: With `O=P(O)(O)OCC(O)CO` (configuration not stated) [Glycerol-3-phosphate] as the compound, how does the LC retention time read?
Answer: 10.4 min

Question: Which LC retention time does the source give for `O=C(O)CCCCC1SCC2NC(=O)NC21` (configuration not stated) [Biotin] here?
Answer: 4.67 min

Question: For `O=C(CO)C(O)C(O)C(O)COP(=O)(O)O` (configuration not stated) [Fructose 6-phosphate], which LC retention time is on record?
Answer: 11.3 min

Question: Which LC retention time does the source give for `O=C(O)CCC(O)C(=O)O` (configuration not stated) [2-hydroxy glutaric acid] here?
Answer: 8.86 min
